According to patent US7927785B2, “Methods for in vitro expansion of hematopoietic stem cells” (The Board of Trustees of the University of Illinois, priority 2002, dated 2011):

Tests used:
Assay type in all cases: cell-based
[1] = tested on: adult human bone marrow CD34+ cells; assay: Ex vivo expansion culture: cell counts and CD34+CD90+ cell numbers; details: for Fold changes from the original cells: CD34+CD90+ cells; for Total counts ×10^5: start 1×10^5 CD34+ cells/well; for expansion of CD34+CD90+ cells / Absolute CD34+ Number (×10^4) / Absolute CD34+CD90+ Numbers (×10^4) / Total Mononuclear Cell Number (×10^4): 9 days with cytokines; for Absolute CD34+ Number (×10^4) / Absolute CD34+CD90+ Numbers (×10^4) / Total Mononuclear Cell Number (×10^4) / Fold Expansion of CD34+CD90+: mean of 3 ± SEM; for Fold Expansion of CD34+CD90+: compared to the primary cell numbers
Protocol: (§1) To promote cell division of isolated CD34^+ cells, a stroma-free suspension culture was established as previously described (Bazil et al., 1995). Tissue culture dishes (35 mm; Costar, Corning, N.Y.) were seeded with 1×10^5 CD34^+cells/well in 2.5 mL Iscove modified Dulbecco medium (IMDM) (Biowhittaker, Walkersville, Md.) containing 30% FBS and a cocktail of cytokines specifically thought to promote exit from G0/G1 in primitive HSC populations which consisted of 100 ng/mL recombinant stem cell factor (SCF), 100 ng/mL FLT-3 ligand, 100 ng/mL thrombopoetin (TPO) and 50 ng/mL of interleukin (IL)-3, (all from Amgen Inc., Thousand Oaks, Calif.).
(§2) Cells were maintained in the media and incubated at 37° C. in a 100%-humidified atmosphere containing 5% CO2 for 48 hours. After intial 16 hours of incubation cells were exposed to the demethylating agent, 5-aza2′deoxycitidine (5azaD) (Sigma Chemicals, St. Louis, Mo.) at a concentration of 10^−6M. After 48 hours, cells were washed by centrifugation and then equally distributed to new tissue culture dishes in 2.5 mL IMDM supplemented with 30% FBS containing cytokines known to promote terminal differentiation of HSC into multiple hematopoietic lineages. The cocktail of cytokines contained 100 ng/mL of SCF, 50 ng/ml of granulocyte colony-stimulating factor (G-CSF), 50 ng/mL of IL-3, 50 ng/ml of IL-6 and 5 units (U)/mL of recombinant erythropoietin (EPO) (Amgen Inc., Thousand Oaks, Calif.). Cells at this time point were exposed to Trichostatin (TSA) (Sigma Chemical., St. Louis, Mo.) at 5 ng/mL and the culture was continued for an additional 7 days. At the end of the culture period cells were counted for viability by the trypan blue exclusion method using an inverted microscope. 5-fluorouracil (5-FU) (Sigma Chemical., St. Louis, Mo.) was used at a concentration of 200 μg/ml and added at the 16 hour time point instead of 5azaD and the cultures carried on as described above with no addition of TSA.
(§3) The phenotypic characteristics of the CD34^+ cells were analyzed using FACS. After 9 days of culture, expanded marrow CD34^+ cells were analyzed for primitive HSC phenotype, previously defined, by using flow activated-cell sorter (FACS) (Becton Dickinson (BD) FACS Calibur, San Jose, Calif.). Cells were stained with anti-human CD34^+ moAb conjugated either to fluorescein isothiocyanate (FITC) or phycoerythrin (PE) and another moAb including anti-CD38, anti-CD117, anti-CD90. To determine the lineage positive cells a panel of moab all conjugated to FITC (anti-CD2, anti-CD14, anti-CD15, anti-CD19 and anti-GlyA) (all antibodies were purchased from BD) were utilized. All anaylsis were paired with the corresponding matched isotype control of the specific moAb utilized. All staining and washes were performed in DPBS (Biowhittaker, Walkersville Md.) and 0.5% BSA (Sigma, Chemicals Co., St. Louis, Mo.). Immediately prior to FACS anaylsis, […] propidium iodide (PI) (Sigma, Chemicals Co., St. Louis, Mo.) was added for the exclusion of nonviable cells for phenotypic analysis. Using Cell-Quest software (BD), at least 10,000 live cells were acquired for each analysis.

[2] = tested on: adult human bone marrow CD34+ cells; assay: Colony-forming cell (CFC) assay in methylcellulose; details: for Total Number Colonies/plate / BFU-E / CFU-GM / CFU-Mix: cells after 9 days with cytokines, mean of 2 ± SEM; for BFU-E / CFU-GM / CFU-Mix: colonies/plate; for BFU (BFU-E colonies) / GM (CFU-GM colonies) / Mix (CFU-Mix colonies) / Total (colonies): mean of 3 experiments, 1000 unfractionated cells/plate after 9 days of culture, day 14; for Clonogenic potential: total colonies/number of cells plated×100; for Plating Efficiencies: total number of hematopoietic colonies/total cells plated × 100
Protocol: Colony-forming cells (CFC) were assayed under standard conditions in semisolid media as previously described (Brandt et al., Blood 94:106-113, 1999). Briefly 1×10^3 primary CD34^+ cells or unfractionated cultured cells exposed to different conditions used following 9 days of culture were plated in duplicate cultures containing 1 ml IMDM with 1.1% methylcellulose, 30% FBS, 5×10^−5 M 2-mercaptoethanol (Methocult, Stem Cell Technologies, Vancouver, BC, Canada), and a cocktail of growth factors including 100 ng/ml of SCF, 5 U/mL of EPO, 50 ng/mL of IL-3, 50 ng/mL of IL-6 and 50 ng/mL of G-CSF (Amgen Inc., Thousand Oaks, Calif.). The cells were plated into 35 mm tissue-culture dishes (Costar), and after 14 days of incubation at 37° C. in a 100%-humidified atmosphere containing 5% CO2, the colonies were scored with an inverted microscope following standard criteria (Breems et al., Leukemia, 8:1095-1104, 1994).

[3] = tested on: adult human bone marrow CD34+ cells; assay: Phenotypic analysis (FACS) of marrow CD34+ cells after ex vivo culture; details: 9 days of culture; single agent; % of total cells
Protocol: as §1, §2, §3

[4] = 9 days of culture, single agent

Compound	% CD34+ of all cells [1, 4]	Absolute CD34+ thy-1+ cells ×10^5 [1, 4]	Absolute CD34 counts ×10^5 [1, 4]	Fold changes from the original cells [1, 4]	Total counts ×10^5 [1, 4]	expansion of CD34+CD90+ cells [1]	Absolute CD34+ Number (×10^4) [1]	Absolute CD34+CD90+ Numbers (×10^4) [1]	Total Mononuclear Cell Number (×10^4) [1]	Fold Expansion of CD34+CD90+ [1]	Total Number Colonies/plate [2]	BFU-E [2]	CFU-GM [2]	CFU-Mix [2]	BFU (BFU-E colonies) [2]	GM (CFU-GM colonies) [2]	Mix (CFU-Mix colonies) [2]	Total (colonies) [2]	Clonogenic potential [2]	Plating Efficiencies [2]	further results
CC(/C=C/C(=O)NO)=C\[C@@H](C)C(=O)c1ccc(N(C)C)cc1 [TSA, Trichostatin A]	3.9%	0.31 ×10^5	1.7 ×10^5	1.4 fold	46 ×10^5	more limited expansion	19.0 ± 1.0 ×10^4	4.0 ± 1.0 ×10^4	470.0 ± 87.0 ×10^4	1.8 ± 0.4 fold	14.3 ± 8.1	0.0	13 ± 6.6	1.3 ± 0.8	0	3	0	3	0.3%	1.4 ± 0.8	CD34+ CD90+ % [3]: 0.8%; CD34+ CKit lo % [3]: 3%; CD34+ Lin− % [3]: 4%; CD34+CD38− % [3]: 1.8%; CD34+CD133+ % [3]: 0.45%; Total CD34+ % [3]: 4%
Nc1ncn([C@H]2C[C@H](O)[C@@H](CO)O2)c(=O)n1 [5azaD, 5-aza2′deoxycitidine]	26%	0.15 ×10^5	0.65 ×10^5	0.7 fold	2.5 ×10^5	more limited expansion	10.0 ± 4.0 ×10^4	4.0 ± 1.7 ×10^4	32.0 ± 5.0 ×10^4	1.7 ± 0.8 fold	97.8 ± 11.1	4 ± 1.5	73.0 ± 0.25	20.8 ± 9.3	5	52	27	84	8.4%	9.8 ± 1.1	% CD34+ thy-1+ cells [1, 4]: 6%; CD34+ CD90+ % [3]: 7%; CD34+ CKit lo % [3]: 19%; CD34+ Lin− % [3]: 30%; CD34+CD38− % [3]: 20%; CD34+CD133+ % [3]: 12%; Total CD34+ % [3]: 30%
